In ChEMBL document CHEMBL1129915, “A novel RGD containing dodecapeptidomimetic which exhibits selective binding to the v3 receptor” (Bioorg Med Chem Lett, 1997):

Columns and labels:
Type in all cases: protein-complex assay
[1] = target: Fibronectin receptor (Integrin alpha-5/beta-1 and alpha-V/beta-3) (Homo sapiens) (UniProt P05106+P05556+P06756+P08648); assay: Binding to Fibronectin receptor on vitronectin coated microtiter plates
[2] = target: Integrin alpha-IIb/beta-3 (Homo sapiens) (UniProt P05106+P08514); assay: Binding to IIb/IIIa on vitronectin coated microtiter plates in ELISA
[3] = target: Integrin alpha-V/beta-3 (Homo sapiens) (UniProt P05106+P06756); assay: Binding to Vitronectin receptor (alphaV-beta3) of PMA stimulated human-derived B lymphocyte on vitronectin coated microtiter plates
[4] = target: Integrin alpha-V/beta-5 (Homo sapiens) (UniProt P06756+P18084); assay: Binding to Vitronectin receptor (alphaV-beta5) coated microtiter plates

Fibronectin receptor (Integrin alpha-5/beta-1 and alpha-V/beta-3) (Homo sapiens), sequence (P05106 whole entry, looked up): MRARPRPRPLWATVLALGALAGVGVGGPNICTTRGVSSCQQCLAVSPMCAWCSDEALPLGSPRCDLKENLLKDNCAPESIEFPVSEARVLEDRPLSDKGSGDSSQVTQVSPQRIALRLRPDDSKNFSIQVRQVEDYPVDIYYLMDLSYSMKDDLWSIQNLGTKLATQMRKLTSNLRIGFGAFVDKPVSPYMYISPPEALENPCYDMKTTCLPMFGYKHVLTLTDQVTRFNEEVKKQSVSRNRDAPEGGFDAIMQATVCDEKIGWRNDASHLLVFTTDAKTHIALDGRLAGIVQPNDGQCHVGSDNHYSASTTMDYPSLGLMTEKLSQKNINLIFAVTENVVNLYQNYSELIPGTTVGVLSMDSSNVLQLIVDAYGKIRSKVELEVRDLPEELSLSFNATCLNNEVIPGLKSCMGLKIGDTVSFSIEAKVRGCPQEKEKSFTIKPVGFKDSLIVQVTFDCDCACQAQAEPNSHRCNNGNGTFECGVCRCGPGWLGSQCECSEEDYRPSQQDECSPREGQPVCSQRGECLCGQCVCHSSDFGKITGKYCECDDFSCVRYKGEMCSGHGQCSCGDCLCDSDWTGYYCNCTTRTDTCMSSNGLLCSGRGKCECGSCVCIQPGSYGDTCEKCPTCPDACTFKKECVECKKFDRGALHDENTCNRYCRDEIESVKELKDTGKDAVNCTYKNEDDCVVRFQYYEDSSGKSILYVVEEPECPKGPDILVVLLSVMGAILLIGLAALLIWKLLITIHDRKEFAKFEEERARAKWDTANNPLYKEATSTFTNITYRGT
Fibronectin receptor (Integrin alpha-5/beta-1 and alpha-V/beta-3) (Homo sapiens), sequence (P05556 whole entry, looked up): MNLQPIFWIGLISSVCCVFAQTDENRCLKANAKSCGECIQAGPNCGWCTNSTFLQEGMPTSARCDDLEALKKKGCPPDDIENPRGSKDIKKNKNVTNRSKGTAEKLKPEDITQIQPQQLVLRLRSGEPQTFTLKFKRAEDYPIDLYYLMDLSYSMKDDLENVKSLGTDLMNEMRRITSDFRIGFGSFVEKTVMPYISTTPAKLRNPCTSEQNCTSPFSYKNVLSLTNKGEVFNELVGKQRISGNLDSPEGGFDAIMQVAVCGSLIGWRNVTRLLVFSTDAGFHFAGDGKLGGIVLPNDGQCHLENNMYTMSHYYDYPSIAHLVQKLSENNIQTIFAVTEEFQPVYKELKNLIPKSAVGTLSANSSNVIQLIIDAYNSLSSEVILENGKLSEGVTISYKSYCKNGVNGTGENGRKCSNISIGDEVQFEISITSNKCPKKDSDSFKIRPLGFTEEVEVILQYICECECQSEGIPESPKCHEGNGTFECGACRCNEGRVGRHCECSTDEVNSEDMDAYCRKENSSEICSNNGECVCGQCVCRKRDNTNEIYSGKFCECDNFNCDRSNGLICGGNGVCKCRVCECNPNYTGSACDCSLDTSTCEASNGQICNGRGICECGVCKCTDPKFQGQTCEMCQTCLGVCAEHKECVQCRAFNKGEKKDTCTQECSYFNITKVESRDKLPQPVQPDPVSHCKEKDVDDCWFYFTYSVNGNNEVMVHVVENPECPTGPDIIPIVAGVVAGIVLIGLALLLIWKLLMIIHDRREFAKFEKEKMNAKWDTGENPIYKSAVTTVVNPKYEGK
Fibronectin receptor (Integrin alpha-5/beta-1 and alpha-V/beta-3) (Homo sapiens), sequence (P06756 whole entry, looked up): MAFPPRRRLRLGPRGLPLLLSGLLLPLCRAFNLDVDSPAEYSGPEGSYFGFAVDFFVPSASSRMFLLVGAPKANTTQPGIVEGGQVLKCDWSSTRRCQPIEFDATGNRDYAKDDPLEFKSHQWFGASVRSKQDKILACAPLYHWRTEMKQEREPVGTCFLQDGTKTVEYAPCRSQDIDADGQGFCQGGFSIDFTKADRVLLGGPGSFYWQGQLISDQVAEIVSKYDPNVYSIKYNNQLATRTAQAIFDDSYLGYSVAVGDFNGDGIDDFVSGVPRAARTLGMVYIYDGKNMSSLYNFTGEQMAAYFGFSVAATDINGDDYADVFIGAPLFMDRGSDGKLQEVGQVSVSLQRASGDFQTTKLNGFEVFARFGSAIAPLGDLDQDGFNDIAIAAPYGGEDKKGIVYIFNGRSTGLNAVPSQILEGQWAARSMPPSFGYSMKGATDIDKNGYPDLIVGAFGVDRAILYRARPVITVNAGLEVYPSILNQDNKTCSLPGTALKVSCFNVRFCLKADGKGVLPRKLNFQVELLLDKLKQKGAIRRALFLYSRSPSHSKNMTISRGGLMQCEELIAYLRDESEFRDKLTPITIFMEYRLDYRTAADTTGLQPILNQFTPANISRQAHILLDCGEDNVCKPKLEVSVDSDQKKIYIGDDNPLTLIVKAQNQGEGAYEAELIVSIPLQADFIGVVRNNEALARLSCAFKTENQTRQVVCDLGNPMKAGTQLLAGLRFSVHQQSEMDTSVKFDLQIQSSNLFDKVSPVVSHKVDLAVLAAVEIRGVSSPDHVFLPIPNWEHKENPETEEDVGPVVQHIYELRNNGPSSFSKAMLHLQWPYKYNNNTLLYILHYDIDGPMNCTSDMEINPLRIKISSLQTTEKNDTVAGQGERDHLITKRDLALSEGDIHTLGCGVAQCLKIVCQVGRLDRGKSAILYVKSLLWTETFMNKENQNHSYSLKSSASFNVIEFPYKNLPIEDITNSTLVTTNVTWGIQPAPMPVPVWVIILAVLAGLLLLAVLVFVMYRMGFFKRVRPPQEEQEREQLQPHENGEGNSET
Fibronectin receptor (Integrin alpha-5/beta-1 and alpha-V/beta-3) (Homo sapiens), sequence (P08648 whole entry, looked up): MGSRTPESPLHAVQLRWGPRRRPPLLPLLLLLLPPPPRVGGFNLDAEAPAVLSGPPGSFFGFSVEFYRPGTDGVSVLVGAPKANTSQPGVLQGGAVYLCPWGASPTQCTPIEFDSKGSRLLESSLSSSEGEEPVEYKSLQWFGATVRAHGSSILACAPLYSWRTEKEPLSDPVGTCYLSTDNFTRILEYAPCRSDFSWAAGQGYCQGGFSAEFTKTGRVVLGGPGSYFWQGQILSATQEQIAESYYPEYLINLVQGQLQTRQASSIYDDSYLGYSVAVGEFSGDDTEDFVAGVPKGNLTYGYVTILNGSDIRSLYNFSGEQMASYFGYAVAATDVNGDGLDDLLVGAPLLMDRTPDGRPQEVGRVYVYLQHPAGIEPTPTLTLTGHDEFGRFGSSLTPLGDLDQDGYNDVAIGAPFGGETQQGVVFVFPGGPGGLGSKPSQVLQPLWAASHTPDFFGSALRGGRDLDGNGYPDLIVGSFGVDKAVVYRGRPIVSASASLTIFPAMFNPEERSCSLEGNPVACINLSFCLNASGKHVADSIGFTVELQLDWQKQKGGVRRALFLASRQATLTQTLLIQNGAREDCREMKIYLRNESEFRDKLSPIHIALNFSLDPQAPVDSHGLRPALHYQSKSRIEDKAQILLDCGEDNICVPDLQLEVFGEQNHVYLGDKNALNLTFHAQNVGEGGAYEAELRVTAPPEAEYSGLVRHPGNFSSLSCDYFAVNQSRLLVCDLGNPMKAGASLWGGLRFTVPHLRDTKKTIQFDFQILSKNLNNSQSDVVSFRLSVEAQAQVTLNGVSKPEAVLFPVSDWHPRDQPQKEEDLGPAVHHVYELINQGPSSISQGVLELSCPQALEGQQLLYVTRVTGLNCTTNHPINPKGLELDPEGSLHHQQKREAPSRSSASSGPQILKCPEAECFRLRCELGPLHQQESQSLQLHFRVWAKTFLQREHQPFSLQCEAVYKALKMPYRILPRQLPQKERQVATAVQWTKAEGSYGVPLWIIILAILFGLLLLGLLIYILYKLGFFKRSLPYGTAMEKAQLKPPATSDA

Binding activity [1]: 0.02 µM | Binding activity [2]: 0.8 µM | Binding activity [3]: 50 µM | Binding activity [4]: 0.582 µM
SMILES: NCC(=O)N[C@@H](CCCN=C(N)N)C(=O)NCC(=O)N[C@@H](CC(=O)O)C(=O)N[C@@H](CO)C(=O)N1CCC[C@H]1C(=O)O
